Where a name gives a salt, the structure may show the parent alone. Read-outs that look alike come from different tables or passages of the source.
Key:
J2 HIE monolayers [1] = experiment: Cytotoxicity by LDH assay in J2 HIE monolayers; settings: for (%) Cytotoxicity: compound 10 μM, n = 1, LDH assay, J2 HIE monolayers infected with GII.4 HuNoV, 24 hpi, normalized to DMSO control
J2 HIE monolayers [2] = format: cell-based; settings: human, 20 h, 50 μM
Protocol: Supplementary file : FIG S2 Cell viability and cytotoxicity of dasabuvir in J2 HIE monolayers. J2 HIE monolayers were treated with DSB at the indicated concentrations for 20 h. Cell viability or cytotoxicity was measured using CellTiter-Glo luminescent cell viability assay or the Cytotoxicity LDH assay kit-WST, respectively. Results were normalized to DMSO control. Values represent the mean ± SD (n = 7). Download FIG S2, TIF file, 0.8 MB.

[3] = healthy volunteers, 1,000 mg twice a day [BID] for 10 days; read-out: maximum plasma concentration (Cmax); cited from earlier work
[4] = test system: RdRp of Middle East respiratory syndrome coronavirus (MERS-CoV); settings: cited from earlier work
SARS-CoV-2 (WK-521) = experiment: SARS-CoV-2 infection of J2 HIE monolayers, viral GEs by RT-qPCR; settings: 20 μM, 20 hpi
SARS-CoV-2 = format: cell-based; settings: VeroE6/TMPRSS2 cells, 20 h
GII.4 HuNoV = GII.4 HuNoV infection of HIE monolayers, viral genome equivalents by RT-qPCR; format: cell-based, human norovirus; settings: for activity at 10 µM / EC50: Norovirus; for activity at 10 µM: 24 h, read-out: (%) HuNoV GEs
HCV of genotype 1 = test system: HCV of genotype 1; set-up: method as in PMID 25534735; settings: HCV genotype 1 subgenomic replicon; cited from earlier work
GII.3 HuNoV = experiment: microbe, parasite or virus in culture; format: cell-based, human norovirus; settings: Norovirus, read-out: EC50, HuNoV GEs
VeroE6/TMPRSS2 cells = settings: 20 h
[5] = test system: human rotavirus A (RVA) Wa strain; format: cell-based; settings: 20 μM, J2 HIE monolayers, 20 hpi
[6] = compound 10 μM, n = 1, J2 HIE monolayers, GII.4 HuNoV, 24 hpi, normalized to DMSO control

| Molecule | (%) Cytotoxicity (J2 HIE monolayers [1]) | activity at 10 µM (GII.4 HuNoV; [6]) | other results |
| --- | --- | --- | --- |
| COc1c(-c2ccc3cc(NS(C)(=O)=O)ccc3c2)cc(-n2ccc(=O)[nH]c2=O)cc1C(C)(C)C [Dasabuvir] | -4.83% | 1.14% | increase of LDH release (cytotoxicity) (J2 HIE monolayers [1]; 50 μM, 20 h, uninfected J2 monolayers, compared to DMSO control): 10%; reduction of cellular ATP (cell viability) (J2 HIE monolayers [2]): 17%; Cmax [3]: ~5.61 µM; inhibition of RdRp activity [4]: partially inhibits; fold decrease of SARS-CoV-2 infection (viral GEs) (SARS-CoV-2 (WK-521)): 26.9 fold; effect on SARS-CoV-2 infection (SARS-CoV-2): inhibition; EC50 (GII.4 HuNoV; J2 + GII.4, 20 hpi, read-out: EC50, HuNoV GEs): 11.7 µM; EC50 (GII.4 HuNoV; J3 + GII.4, 20 hpi, read-out: EC50, HuNoV GEs): 12.4 µM; EC50 (GII.4 HuNoV; range over GII.4 and GII.3 HuNoV in J2 and J3 HIEs (Fig. 2), read-out: EC50 values, HuNoV infection): 7.55 to 12.4 µM; EC50 (HCV of genotype 1): < 0.01 µM; EC50 (GII.3 HuNoV; J2 + GII.3, 20 hpi): 7.55 µM; EC50 (GII.3 HuNoV; J3 + GII.3, 20 hpi): 9.85 µM; cytotoxicity (VeroE6/TMPRSS2 cells): no cytotoxicity; fold decrease of RVA infection (viral GEs) [5]: 2.75 fold |
| O=C1C[C@@H](c2ccc(O)cc2)Oc2cc(O)cc(O)c21 [Naringenin] | 1.14% | 165% | – |
| C[C@@H]1O[C@@H](O[C@H]2[C@H](Oc3cc(O)c4c(c3)O[C@H](c3ccc(O)cc3)CC4=O)O[C@H](CO)[C@@H](O)[C@@H]2O)[C@H](O)[C@H](O)[C@H]1O [Naringin] | 5.67% | 101% | – |
| Cc1ccnc2c1NC(=O)c1cccnc1N2C1CC1 [Nevirapine] | 0.72% | 56.6% | – |
| CC1(C)CC[C@]2(C(=O)O)CC[C@]3(C)C(=CC[C@@H]4[C@@]5(C)CC[C@H](O)C(C)(C)[C@@H]5CC[C@]43C)[C@@H]2C1 [Oleanolic Acid] | 4.14% | 82% | – |
| CC1(C)CC[C@]2(C(=O)O)CC[C@]3(C)C(=CC[C@@H]4[C@@]5(C)CCC(=O)C(C)(C)[C@@H]5CC[C@]43C)[C@@H]2C1 [Oleanonic Acid] | -3.05% | 11.9% | – |
| O=C(Nc1ccc(O)cc1)c1ccccc1O [Osalmid] | 3.16% | 52.1% | – |
| O=C1CCC[C@@H]2[C@H]3CCC[N+]4([O-])CCC[C@@H](CN12)[C@@H]34 (stereo partly shown) [Oxymatrine] | 2.33% | 56.1% | – |
| Cc1cnc(C(=O)N[C@H]2CCCCC/C=C\[C@@H]3C[C@@]3(C(=O)NS(=O)(=O)C3CC3)NC(=O)[C@@H]3C[C@@H](Oc4nc5ccccc5c5ccccc45)CN3C2=O)cn1 [Paritaprevir] | -0.33% | 45% | – |
| C[C@H]1CC[C@@]2(O)C(C)(C)[C@@H]3CC[C@@]2(C)[C@H]1C3 [Patchouli alcohol] | 1.24% | – | (%) HuNoV GEs (GII.4 HuNoV; [6]): 83.87% |
| Cc1nc(N(C)C(=O)Cc2ccc(-c3ccccn3)cc2)sc1S(N)(=O)=O [Pritelivir] | -1.63% | 64.5% | – |
| Cc1nnc(C(=O)NC(C)(C)c2nc(C(=O)NCc3ccc(F)cc3)c(O)c(=O)n2C)o1 [Raltegravir] | 1.45% | 49.3% | – |
| Cc1cc(/C=C/C#N)cc(C)c1Nc1ccnc(Nc2ccc(C#N)cc2)n1 [Rilpivirine] | 0.20% | 117% | – |
| CC(N)C12CC3CC(CC(C3)C1)C2 (stereo not shown) [Rimantadine hydrochloride] | 2.41% | 40.9% | – |
| COc1ccc(C2CNC(=O)C2)cc1OC1CCCC1 (stereo not shown) [Rolipram] | -0.46% | 78.7% | – |
| CC(C)OC(=O)[C@H](C)N[P@](=O)(OC[C@H]1O[C@@H](n2ccc(=O)[nH]c2=O)[C@](C)(F)[C@@H]1O)Oc1ccccc1 [Sofosbuvir] | 0.74% | 22.6% | – |
| CN[C@@H]1[C@H](O)[C@H](NC)[C@H]2O[C@@]3(O)C(=O)C[C@@H](C)O[C@H]3O[C@@H]2[C@H]1O.Cl.Cl [Spectinomycin dihydrochloride] | -1.44% | – | (%) HuNoV GEs (GII.4 HuNoV; [6]): 109.17% |
| CC(C)OC(=O)[C@H](C)N[P@](=O)(CO[C@H](C)Cn1cnc2c(N)ncnc21)Oc1ccccc1 [Tenofovir alafenamide] | -0.20% | – | activity at 10 µM (GII.4 HuNoV): 55.2% |
| CN(C)[C@@H]1C(O)=C(C(N)=O)C(=O)[C@@]2(O)C(O)=C3C(=O)c4c(O)cccc4[C@@](C)(O)[C@H]3C[C@@H]12 [Tetracycline] | 0.09% | 108% | – |
| O=C(Nc1ncc([N+](=O)[O-])s1)c1ccccc1O [Tizoxanide] | 2.28% | 40% | – |
| CC(C)OC(=O)C1=CN(C(=O)c2ccc(F)c(F)c2)CC(C)(C)c2c1[nH]c1ccccc21 [Turofexorate Isopropyl] | 0.86% | 31.9% | – |
| COC[C@H]1C[C@@H](c2ncc(-c3ccc4c(c3)COc3cc5c(ccc6nc([C@@H]7CC[C@H](C)N7C(=O)[C@@H](NC(=O)OC)C(C)C)[nH]c65)cc3-4)[nH]2)N(C(=O)[C@H](NC(=O)OC)c2ccccc2)C1 [Velpatasvir] | 1.45% | 59.8% | – |
| O=C(/C=C\n1cnc(-c2cc(C(F)(F)F)cc(C(F)(F)F)c2)n1)NNc1ccccn1 [Verdinexor] | 10.81% | 142% | – |
| COc1cc(O)c(CC=C(C)C)c(O)c1C(=O)/C=C/c1ccc(O)cc1 [Xanthohumol] | 2.40% | 67.3% | – |
| Vitamin E | -0.33% | – | (%) HuNoV GEs (GII.4 HuNoV; [6]): 125.47% |

Reference: article PMC8565515, “Dasabuvir Inhibits Human Norovirus Infection in Human Intestinal Enteroids” (mSphere, 2021)
